≈ marks a conversion by molar mass, not a printed value. Read-outs that look alike come from different tables or passages of the source. Bridge positions count the residues as written; N and C are the ends. Square brackets hold non-standard residues; d marks the D form. Peptide text beside a SMILES is read from it. * marks the point of attachment. X13 = NCC[C@H](OCc1ccc(Cl)cc1)C(=O)*; X26 = NCC[C@H](OCC1CCCCC1)C(=O)*; dCha = N[C@H](CC1CCCCC1)C(=O)O; Dab = NCC[C@H](N)C(=O)O; Dap = NC[C@H](N)C(=O)O
Tests used:
Format in all cases: cell-based
HK-2 cells = test system: HK-2 cells
Source text: Values are reported relative to Polymyxin B.

Acinetobacter baumannii = test system: Acinetobacter baumannii
Procedure, shortened: (§1)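 Values are minimum inhibitory concentrations, reported in μg/mL. Compounds were tested for susceptibility against up to nine strains per organism, including resistant isolates.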

Klebsiella pneumoniae = test system: Klebsiella pneumoniae
Procedure, shortened: as §1

Escherichia coli = test system: Escherichia coli
Procedure, shortened: as §1

Pseudomonas aeruginosa = test system: Pseudomonas aeruginosa
Procedure, shortened: as §1

Row | Compound | HK-2 IC50 (HK-2 cells) [µg/mL] | MIC A. baumanii 053 (Acinetobacter baumannii) [µg/mL] | MIC A. baumanii 056 (Acinetobacter baumannii) [µg/mL] | MIC A. baumanii ATCC BAA-747 (Acinetobacter baumannii) [µg/mL] | MIC A. baumanii NCTC 13424 (Acinetobacter baumannii) [µg/mL] | MIC K. pneumoniae 063 (Klebsiella pneumoniae) [µg/mL] | MIC K. pneumoniae 065 (Klebsiella pneumoniae) [µg/mL] | MIC K. pneumoniae ATCC 4352 (Klebsiella pneumoniae) [µg/mL] | MIC K. pneumoniae ATCC 13882 (Klebsiella pneumoniae) [µg/mL] | MIC E. coli 058 (Escherichia coli) [µg/mL] | MIC E. coli 061 (Escherichia coli) [µg/mL] | MIC E. coli ATCC 25922 (Escherichia coli) [µg/mL] | MIC P. aeruginosa 068 (Pseudomonas aeruginosa) [µg/mL] | MIC P. aeruginosa 070 (Pseudomonas aeruginosa) [µg/mL] | MIC P. aeruginosa ATCC 27853 (Pseudomonas aeruginosa) [µg/mL] | MIC P. aeruginosa CCUG 59347 (Pseudomonas aeruginosa) [µg/mL] | further results
1 | CC(C)C[C@@H]1NC(=O)[C@@H](CC2CCCCC2)NC(=O)[C@H](CCN)NC(=O)[C@@H](NC(=O)[C@H](CN)NC(=O)[C@@H](NC(=O)C(CN)Cc2ccccc2)C(C)O)CCNC(=O)[C@H]([C@@H](C)O)NC(=O)[C@H](CCN)NC(=O)[C@H](CCN)NC1=O (single isomer, unassigned; isomer 2) [Example 34, 3-amino-2-benzylpropanoyl L-Thr-L-Dap-polymyxin [D-cyclohexylalanine]-6 heptapeptide. Isomer 2] | 99 | 32 (≈ 28.7 µM) | 16 (≈ 14.3 µM) | 0.125 (≈ 0.112 µM) | 0.06 (≈ 0.0537 µM) | 32 (≈ 28.7 µM) | 4 (≈ 3.58 µM) | 0.125 (≈ 0.112 µM) | 0.125 (≈ 0.112 µM) | 2 (≈ 1.79 µM) | 16 (≈ 14.3 µM) | 0.25 (≈ 0.224 µM) | 4 (≈ 3.58 µM) | 4 (≈ 3.58 µM) | 0.25 (≈ 0.224 µM) | 0.25 (≈ 0.224 µM) | MIC E. coli NCTC 9001 (Escherichia coli): 0.125 µg/mL (≈ 0.112 µM)
2 | CC(C)CC(CN)C(=O)N[C@H](C(=O)N[C@@H](CN)C(=O)N[C@H]1CCNC(=O)[C@H]([C@@H](C)O)NC(=O)[C@H](CCN)NC(=O)[C@H](CCN)NC(=O)[C@H](CC(C)C)NC(=O)[C@@H](Cc2ccc(-c3ccccc3)cc2)NC(=O)[C@H](CCN)NC1=O)C(C)O (single isomer, unassigned; isomer 2) [Example 16, 2-aminomethyl-4-methyl pentanoyl polymyxin L-Thr-L-Dap-polymyxin [D-(4-phenyl Phe)]-6]heptapeptide. Isomer 2] | 32 | 16 (≈ 13.9 µM) | 4 (≈ 3.47 µM) | 0.25 (≈ 0.217 µM) |  | 16 (≈ 13.9 µM) | 1 (≈ 0.868 µM) | 0.5 (≈ 0.434 µM) |  | 4 (≈ 3.47 µM) | 16 (≈ 13.9 µM) | 0.25 (≈ 0.217 µM) | 4 (≈ 3.47 µM) | 8 (≈ 6.94 µM) | 0.5 (≈ 0.434 µM) |  | MIC K. pneumoniae 062 (Klebsiella pneumoniae): 4 µg/mL (≈ 3.47 µM); MIC K. pneumoniae 064 (Klebsiella pneumoniae): 2 µg/mL (≈ 1.74 µM); MIC K. pneumoniae 066 (Klebsiella pneumoniae): 4 µg/mL (≈ 3.47 µM); MIC K. pneumoniae 067 (Klebsiella pneumoniae): 32 µg/mL (≈ 27.8 µM); MIC E. coli 059 (Escherichia coli): 1 µg/mL (≈ 0.868 µM); MIC E. coli 060 (Escherichia coli): 5 µg/mL (≈ 4.34 µM)
3 | CC(C)C[C@@H]1NC(=O)[C@@H](CC2CCCCC2)NC(=O)[C@H](CCN)NC(=O)[C@@H](NC(=O)[C@H](CN)NC(=O)[C@@H](NC(=O)[C@H](CCN)OCc2ccc(Cl)cc2)[C@@H](C)O)CCNC(=O)[C@H]([C@@H](C)O)NC(=O)[C@H](CCN)NC(=O)[C@H](CCN)NC1=O [Example 74, (S)-4-amino-2-((4-chlorobenzyl)oxy) butanoyl L-Thr-L-Dap-polymyxin [D-cyclohexylalanine]-6 heptapeptide.] (X13-T[Dap][Dab][Dab][dCha]L[Dab][Dab]T; lactam 3-C) | 52 | 32 (≈ 27.1 µM) | 32 (≈ 27.1 µM) | 0.125 (≈ 0.106 µM) | 0.125 (≈ 0.106 µM) | 16 (≈ 13.5 µM) | 2 (≈ 1.69 µM) |  | 0.25 (≈ 0.212 µM) | 2 (≈ 1.69 µM) | 16 (≈ 13.5 µM) | 0.125 (≈ 0.106 µM) | 4 (≈ 3.39 µM) | 4 (≈ 3.39 µM) | 0.25 (≈ 0.212 µM) | 0.25 (≈ 0.212 µM) | 
4 | CC(C)CCC(CCN)C(=O)N[C@H](C(=O)N[C@@H](CN)C(=O)N[C@H]1CCNC(=O)[C@H]([C@@H](C)O)NC(=O)[C@H](CCN)NC(=O)[C@H](CCN)NC(=O)[C@H](CC(C)C)NC(=O)[C@@H](CC2CCCCC2)NC(=O)[C@H](CCN)NC1=O)[C@@H](C)O (single isomer, unassigned; isomer 2) [Example 80, 2-(2-aminoethyl)-5-methylhexanoyl L-Thr-L-Dap-polymyxin [D-cyclohexylalanine-6]heptapeptide. isomer 2] |  | 64 (≈ 57.6 µM) | 32 (≈ 28.8 µM) | 0.125 (≈ 0.113 µM) | 0.125 (≈ 0.113 µM) | 8 (≈ 7.2 µM) | 2 (≈ 1.8 µM) | 0.06 (≈ 0.054 µM) | 0.25 (≈ 0.225 µM) | 2 (≈ 1.8 µM) | 8 (≈ 7.2 µM) | 0.125 (≈ 0.113 µM) | 2 (≈ 1.8 µM) | 2 (≈ 1.8 µM) | 0.25 (≈ 0.225 µM) | 0.5 (≈ 0.45 µM) | MIC E. coli NCTC 9001 (Escherichia coli): 0.03 µg/mL (≈ 0.027 µM)
5 | CC(C)C[C@@H]1NC(=O)[C@@H](CC2CCCCC2)NC(=O)[C@H](CCN)NC(=O)[C@@H](NC(=O)[C@H](CN)NC(=O)[C@@H](NC(=O)[C@H](CCN)OCC2CCCCC2)[C@@H](C)O)CCNC(=O)[C@H]([C@@H](C)O)NC(=O)[C@H](CCN)NC(=O)[C@H](CCN)NC1=O [Example 84, (S)-4-amino-2-(cyclohexyl-methoxy) butanoyl L-Thr-L-Dap-polymyxin [D-cyclohexylalanine-6]heptapeptide.] (X26-T[Dap][Dab][Dab][dCha]L[Dab][Dab]T; lactam 3-C) |  | >32 | 32 (≈ 27.8 µM) | 0.25 (≈ 0.217 µM) | 0.25 (≈ 0.217 µM) | 32 (≈ 27.8 µM) | 4 (≈ 3.47 µM) |  | 0.25 (≈ 0.217 µM) | 8 (≈ 6.94 µM) | 8 (≈ 6.94 µM) | 0.125 (≈ 0.108 µM) |  | 8 (≈ 6.94 µM) | 0.25 (≈ 0.217 µM) | 0.5 (≈ 0.434 µM) | 
6 | CC(C)CC1CNCC(C(=O)N[C@H](C(=O)N[C@@H](CN)C(=O)N[C@H]2CCNC(=O)[C@H]([C@@H](C)O)NC(=O)[C@H](CCN)NC(=O)[C@H](CCN)NC(=O)[C@H](CC(C)C)NC(=O)[C@@H](Cc3ccc(Br)cc3)NC(=O)[C@H](CCN)NC2=O)C(C)O)C1 (single isomer, unassigned; isomer 1) [Example 11, (trans-5-(isobutyl-piperidine)-3-carbonyl L-Thr-L-Dap-polymyxin [D-(4-bromo Phe)]-6] hept apeptide Isomer 1] |  | >64 | 32 (≈ 26.8 µM) | 2 (≈ 1.67 µM) |  | >64 | 64 (≈ 53.5 µM) | 1 (≈ 0.837 µM) |  | 16 (≈ 13.4 µM) | 64 (≈ 53.5 µM) | 1 (≈ 0.837 µM) | 8 (≈ 6.69 µM) | 16 (≈ 13.4 µM) | 1 (≈ 0.837 µM) |  | MIC K. pneumoniae 062 (Klebsiella pneumoniae): >64 µg/mL; MIC K. pneumoniae 064 (Klebsiella pneumoniae): >64 µg/mL; MIC K. pneumoniae 066 (Klebsiella pneumoniae): >64 µg/mL; MIC K. pneumoniae 067 (Klebsiella pneumoniae): >64 µg/mL; MIC E. coli 059 (Escherichia coli): 32 µg/mL (≈ 26.8 µM); MIC E. coli 060 (Escherichia coli): 16 µg/mL (≈ 13.4 µM)
7 | CC(C)C[C@@H]1NC(=O)[C@@H](CC2CCCCC2)NC(=O)[C@H](CCN)NC(=O)[C@@H](NC(=O)[C@H](CCN)NC(=O)[C@@H](NC(=O)CC(CN)CC2CCCCC2)[C@@H](C)O)CCNC(=O)[C@H]([C@@H](C)O)NC(=O)[C@H](CCN)NC(=O)[C@H](CCN)NC1=O (single isomer, unassigned; isomer 1) [Example 91, 4-amino-3-(cyclohexylmethyl) butanoyl polymyxin [D-cyclohexylalanine-6]nonapeptide. Isomer 1] |  |  |  |  |  |  |  |  |  |  |  |  |  |  |  |  | MIC A. baumanii ATCC BAA-747 (Acinetobacter baumannii; strain ATCC BAA-747): 0.25 µg/mL (≈ 0.217 µM); MIC A. baumanii NCTC 13424 (Acinetobacter baumannii; strain NCTC 13424): 0.125 µg/mL (≈ 0.109 µM); MIC K. pneumoniae 065 (Klebsiella pneumoniae; strain 065): 4 µg/mL (≈ 3.48 µM); MIC K. pneumoniae ATCC 13882 (Klebsiella pneumoniae; strain ATCC 13882): 0.25 µg/mL (≈ 0.217 µM); MIC E. coli 058 (Escherichia coli; strain 058): 4 µg/mL (≈ 3.48 µM); MIC E. coli ATCC 25922 (Escherichia coli; strain ATCC 25922): 0.125 µg/mL (≈ 0.109 µM); MIC P. aeruginosa ATCC 27853 (Pseudomonas aeruginosa; strain ATCC 27853): 0.25 µg/mL (≈ 0.217 µM); MIC P. aeruginosa CCUG 59347 (Pseudomonas aeruginosa; strain CCUG 59347): 0.5 µg/mL (≈ 0.435 µM)

Source: patent US12146004B2, “Polymyxin compounds and uses thereof” (priority 2014, dated 2024)
